Measured values published in patent US9745318B2, “Fluorescent red emitting functionalizable calcium indicators” (PARIS SCIENCES ET LETTRES—QUARTIER LATIN, priority 2013, dated 2017).
Several values for one entry are separate records, joined by “and”; a condition that tells them apart may be missing. Equal entries are not always repeated. Where two headings read alike, the source gives them in different places. Blank lines part the entries; values can stand above or below the compound they belong to.

What was measured:
Purkinje cells = test: High-speed random access two-photon microscopy with climbing fiber stimulation in cerebellar slices; assay type: cell-based, mice; details: exponential fit, n=59 spines from 7 cells, 300 μM in pipette
Experimental: For high speed imaging experiments, acute 260 μm thick slices were obtained from the cerebellar vermis of P60 mice and superfused with extracellular saline medium.
Climbing fiber stimulation-evoked transient [Ca^2+] changes in Purkinje cell spines were recorded at high acquisition rate (>2 kHz) by two-photon random-access microscopy, a technique is based on the use of acousto-optic deflectors (AODs), which enable selective scanning of defined points. Purkinje cells were recorded in current-clamp mode, using 2-3MΩ patch pipettes containing 300 μM Ia-1. Recordings were obtained by use of a Multiclamp 700B (Molecular Devices). Following the dialysis of Ia-1, Purkinje cells in slices were imaged under a 25× Leica water immersion objective (HCX IRAPO L 25×/0.95). […] A multifunction card (NI-PCI-MIO 16 E-4) was used to pass all the triggers necessary to synchronize the imaging and the electrophysiology and to control the piezo-electric device that moves the objective in Z. Fluorescence photons were detected by cooled AsGaP photomultipliers (H7421-40, Hamamatsu) discriminated and counted on a fast digital card.
During stimulation of the climbing fiber, fluorescence traces were acquired from multiple spines (range: 4 to 14) at rates over 1 kHz (range 2.2 to 4.8 kHz) (FIGS. 11e and 11f).

[1] = Fluorimetric titration against Ca2+ (cuvette calibration, Hill fit); assay type: binding; details: for Kd: 100 mM KCl, 30 mM MOPS, pH 7.2, Hill fit
Experimental: All the solvents were of analytical grade. Chemicals were purchased from commercial sources. ^1H-NMR and ^13C-NMR were measured on a Bruker avance 111-300 MHz spectrometer with chemical shifts reported in ppm (TMS as internal standard). Mass spectra were measured on a Focus GC/DSQ II spectrometer (ThermoScientific) for IC and an API 3000 spectrometer (Applied Biosystems, PE Sciex) for ES. All pH measurements were made with a Mettler Toledo pH-Meter. Fluorescence spectra were recorded on a JASCO FP-8300 spectrofluorometer. Absorption spectra were determined on a VARIAN CARY 300 Bio UV-Visible spectrophotometer. All measurements were done at a set temperature of 25° C. The purity of the dyes were checked by RP-HPLC C-18, eluant: ACN 0.1% TFA/Water 0.1% TFA, method: 20/80 to 100/0 within 20 min then 100/0 for 10 min. detection at λAbs=254 nm. The apparent dissociation constant for calcium (Kd Ca^2+) was measured with a calcium calibration buffer kit from Invitrogen.
A fluorimetric titration of Ia-1 (5 μM) against Ca^2+ in a buffer containing (in mM) 100 KCl and 30 MOPS (pH 7.2) was performed.
A fluorimetric titration of Ia-1-Dextran-6000 conjugate against Ca^2+ in a buffer containing (in mM) 100 KCl and 30 MOPS (pH 7.2) was also conducted.
A fluorimetric titration of Ic-1 and Ic-2 against Ca^2+ in a buffer containing (in mM) 100 KCl and 30 MOPS (pH 7.2) was also conducted. […] The normalised fluorimetric titrations against Ca^2+ of Ia-1, Ic-1 and Ic-2 are represented in FIG. 13.

[2] = Two-photon excitation, fluorescence intensity vs. excitation power; assay type: physicochemical
Experimental: Experiments of two-photon excitation of Ia-1 were conducted. Results are represented on FIG. 8. The power function fit to the data gives a power of 1.92±0.10—within one SD of 2.0, as expected for two-photon excitation evidencing that the measured fluorescence was indeed two-photon excited.

[3] = Determination of fluorescence quantum yield; assay type: physicochemical; details: rhodamine 101 as reference standard
Experimental: The quantum yields φ of Ia-1 were calculated from the slope of the integrated spectral emission (545 to 700 nm) of Ia-1 in the presence (2 mM) or absence (0 mM, 10 mM EGTA) of Ca^2+ vs. absorbance at 535 nm using rhodamine 101 (φ=1.0 in absolute ethanol) as a reference standard. A solvent correction was applied for the comparison of the fluorescence quantum yields of Ia-1 and rhodamine 101. The quantum yields φ were calculated using the following equation where φ is the quantum yield, s is the value of the observed slope and η is the refractive index of the solvent used.
[formula] • The calculations gave: φCalcium free=0.0089 • φCa2+=0.4541 II.4. Two-Photon Excitation of Compound Ia-1

[4] = in absolute ethanol; cited from earlier work
[5] = read-out: apparent dissociation constant for Ca2+

Kd ([1]; read-out: apparent dissociation constant (KD) for Ca2+): 0.258 µM | increase of fluorescence on binding [Ca2+] ([1]; cuvette calibration experiments): 50 fold | power of the power function fit (fluorescence intensity vs. excitation power) [2]: 1.92±0.10 | quantum yield φ, calcium free ([3]; 0 mM Ca2+, 10 mM EGTA): 0.0089 | quantum yield φ, Ca2+ bound (maximum quantum yield) ([3]; 2 mM Ca2+): 0.4541 and 0.45
SMILES: [N-]=[N+]=NCCCCCCOc1cc(OCCOc2ccccc2N(CC(=O)O)CC(=O)O)c(N(CC(=O)O)CC(=O)O)cc1C1=c2cc3c4c(c2Oc2c1cc1c5c2CCCN5CCC1)CCC[N+]=4CCC3 [Ia-1]
rise time τ of Ca2+ transients (Purkinje cells): 1.30 ± 0.26 ms

Kd [1, 5]: 1.7 µM
SMILES: [N-]=[N+]=NCCCCCCOc1cc(OCCOc2ccc(Cl)cc2N(CC(=O)O)CC(=O)O)c(N(CC(=O)O)CC(=O)O)cc1C1=c2cc3c4c(c2Oc2c1cc1c5c2CCCN5CCC1)CCC[N+]=4CCC3 [Ic-1]

Kd [1, 5]: 0.32 µM
SMILES: [N-]=[N+]=NCCCCCCOc1cc(OCCOc2cc(F)ccc2N(CC(=O)O)CC(=O)O)c(N(CC(=O)O)CC(=O)O)cc1C1=c2cc3c4c(c2Oc2c1cc1c5c2CCCN5CCC1)CCC[N+]=4CCC3 [Ic-2]

SMILES: O=C(O)c1ccccc1C1=c2cc3c4c(c2Oc2c1cc1c5c2CCCN5CCC1)CCC[N+]=4CCC3.[Cl-] [rhodamine 101]
quantum yield φ of reference standard [4]: 1.0
